These results are taken from patent US4342700A, “Oxidation-reduction reagents for a wet desulfurization process and a process for preparing same” (Mitsui Toatsu Chemicals, Inc., priority 1978, dated 1982).

The nature of data set [1]: Test for absorbing hydrogen sulfide according to the Stretford process (wet desulfurization).
Text: In view of the solubility and oxidation-reduction characteristics above described, the anthraquinone compounds of the general formulas (I) and (II) are expected to exert an equivalent performance to anthraquinone-2,7-disulfonate as an oxidation-reduction reagent used for the Stretford process. […] The results of the test are given in Examples 11-17. The compounds of the general formulas (I) and (II) exerted in the Stretford process an equivalent desulfurization performance to anthraquinone-2,7-disulfonates. In other words, these anthraquinone compounds are quite equivalent to or somewhat better than anthraquinone-2,7-disulfonate in elimination rate of hydrogen sulfide (desulfurization ratio), a conversion rate of the absorbed hydrogen sulfide to elemental sulfur and a concentration of the residual hydrogen sulfide in the refined gas.
(§1) An absorption column was prepared by charging a glass tube (with a jacket) of 10 cm in inner diameter and 100 cm in length with a basket type filler of polypropylene (Tellerette S available from Nittetsu Kakoki KK, Japan) with a diameter of 1 cm up to a height of 95 cm. A hydrogen sulfide-containing gas prepared by mixing a gas composed of 6% carbon dioxide and 94% nitrogen with hydrogen sulfide in an amount of 5 g/Nm^2 was introduced at a flow rate of 230 l/hr. into the absorption column from the bottom thereof. On the other hand, an alkaline aqueous solution containing 0.03 mol/l of sodium metavanadate and 0.005 mol/l of sodium 2-carboxyanthraquinonemonosulfonate, which had been adjusted to have a pH value of 9 by addition of sodium carbonate and was kept at 40° C. was sprayed at a rate of 4.6 l/hr. into the absorption column from the top thereof whereby the hydrogen sulfide-containing gas was brought in the column into contact with the alkaline aqueous solution.
A gas/liquid ratio in this case was 0.02. From the lower part of the absorption column, the liquid was discharged and conveyed into a regeneration column made of a glass tube (with a jacket) of 10 cm in inner diameter and 100 cm in length where elementary sulfur was completely precipitated from the liquid by blowing air thereinto. A residence time of the liquid in the regeneration column was 20 minutes.
as §1, with “lenght” for “length”, “S)” for “S available from Nittetsu Kakoki KK, Japan)”, “g/Nm^3” for “g/Nm^2”, “2-phenoxyanthraquinonetrisulfonate,” for “2-carboxyanthraquinonemonosulfonate,”, “solution. A gas/liquid ratio in this case was 0.02. From the lower part of the absorption column, the liquid was discharged and conveyed into a regeneration column made of a glass tube (with a jacket) of 10 cm in inner diameter and 100 cm in length where elementary sulfur was completely precipitated from the liquid by blowing air thereinto. A residence time of the liquid in the regeneration column was 20 minutes.” for “solution.”
An absorption column was prepared by charging a glass tube (with a jacket) of 10 cm in inner diameter and 100 cm in length with a basket type filler of polypropylene (Tellerett S) with a diameter of 1 cm up to a height of 95 cm. […]

Data set [2] in a line: Solubility (g/l, 25° C.) in alkaline inorganic salt solutions and water. The following applies: for Solubility: 25° C.
A short description of data set [3]: Time required for oxidation by air to regenerate the quinone form. It is filed as physicochemical. The conditions noted are these: 38° C., leucoanthraquinonesulfonate 0.04 mol/l, NaOH 0.08 mol/l. On the procedure: (§2) Easiness in oxidation-reduction of these compounds is evaluated by their standard oxidation-reduction potential and their oxidation and reduction rates.
**Air was absorbed at 38° C. in an aqueous solution containing a
given leucoanthraquinonesulfonate (0.04 mol/l) and sodium hydroxide (0.08
mol/l) under agitation whereby the time required for finishing the
airabsorption was measured.

Data set [4] is described as follows: pH of solution in pure water. Format: physicochemical.
Data set [5] is described as follows: Time required for being reduced to the leuco form by sodium vanadite. The conditions noted are these: 38° C., nitrogen, sodium vanadite 0.02 mol/l, anthraquinonesulfonate 0.04 mol/l, NaOH 0.04 mol/l. It is filed as physicochemical. On the procedure: as §2
Data set [6] is described as follows: Standard oxidation-reduction potential Eo. The conditions noted are these: for Standard oxidation-reduction potential Eo: 25° C.; for oxidation-reduction characteristics compared with anthraquinone-2,7-disulfonate (in words): from Table 2 (reaction rates and Eo). Format: physicochemical. On the procedure: as §2
For data set [7] the following is noted: basic aqueous solution used in the Stretford process; background statement; cited from earlier work.
Setting [8] is: Examples 11-12: 0.005 mol/l reagent, 0.03 mol/l sodium metavanadate, pH 9, 40° C., H2S gas 230 l/hr, liquid 4.6 l/hr.
Setting [9] is: 20g Na2 CO3 + 300g Na2 S2 O3 in 1 liter of water.
Where [10] appears, read: 20g Na2 CO3 + 300g NaSCN in 1 liter of water.
Setting [11] is: Mixed aqueous solution: 20 g/l sodium carbonate, 50 g/l sodium sulfate, 100 g/l sodium thiosulfate, 150 g/l sodium thiocyanate.
Setting [12] is: Example 17: same manner as described in Example 13 (so in the source).
Where [13] appears, read: Examples 13-15: 0.005 mol/l reagent, 0.03 mol/l sodium metavanadate, pH 9, 40° C., H2S gas 5 g/Nm^3, 230 l/hr.
The mark [14] stands for this setting: practical use, Stretford process.

Turning to “potassium 2-carboxyanthraquinonemonosulfonate”, the desulfurization ratio entry in data set [1] (setting [8]) is given as “at least 99.7%”.
As a reminder, the Solubility is the dissolved amount per volume that the medium holds. Turning to `O=C1c2ccc(S(=O)(=O)[O-])cc2C(=O)c2ccc(S(=O)(=O)[O-])cc21.[Na+].[Na+]` [reference compound], the Solubility was < 1 mg/mL in data set [2] (setting [9]), < 1 mg/mL in data set [2] (setting [10]), < 1 mg/mL in data set [2] (setting [11]) and 39 mg/mL in data set [2] (Water).
Take “sodium 2-carboxyanthraquinonetetrasulfonate”: the desulfurization ratio entry in data set [1] (setting [12]) was “at least 99.7%”.
Turning to “sodium 2-carboxyanthraquinonemonosulfonate”, the “Time required for oxidation to regenerate the quinone form” value (“Time required for oxidation” below) in data set [3] came out at 15 min. In addition, in data set [4], the “pH of the solution” value was 3-4. For the same molecule, in data set [1] (Example 11: 0.005 mol/l reagent, 0.03 mol/l sodium metavanadate, pH 9, 40° C.), the “quantity of sulfur recovered, % of hydrogen sulfide contained in the feed gas” value was determined as 97%. In addition, the desulfurization ratio in data set [1] (setting [8]) is recorded as ≥ 99.7%. The “Time required for reduction to the leuco form” value (“Time required for reduction” for short) in data set [5] came to 5 min. Besides, the “Standard oxidation-reduction potential Eo” value in data set [6] came to 0.29 V. The “oxidation-reduction characteristics compared with anthraquinone-2,7-disulfonate (in words)” value (“oxidation-reduction characteristics” for short) in data set [6] was “very similar in oxidation-reduction characteristics to sodium anthraquinone-2,7-disulfonate”. Besides, the Solubility in data set [2] (setting [9]) is 38 mg/mL; in data set [2] (setting [10]), 25 mg/mL; in data set [2] (setting [11]) it was 15 mg/mL; in data set [2] (Water) it was 12 mg/mL. Moreover, in data set [2] (neutral or weakly alkaline solution, as disodium salt), the “solubility as disodium salt” value is ≥ 200 mg/mL.
In the case of “potassium 2-phenoxyanthraquinonetetrasulfonate”, the desulfurization ratio result in data set [1] (setting [13]) was “at least 99.7%”.
Take “potassium 2-phenoxyanthraquinonetrisulfonate”: the desulfurization ratio result in data set [1] (setting [13]) is recorded as “at least 99.7%”.
Same read-out and setting: the result for “ammonium 2-phenoxyanthraquinonetetrasulfonate” reads “at least 99.7%”.
`O=C1c2ccc(S(=O)(=O)[O-])cc2C(=O)c2cc(S(=O)(=O)[O-])ccc21.[Na+].[Na+]` [reference compound]: in data set [3], the “Time required for oxidation” value is 15 min. In data set [1] (setting [8]), the desulfurization ratio was found to be 99.6%. Further, the “Time required for reduction” value in data set [5] was found to be 5 min. Besides, the “Standard oxidation-reduction potential Eo” value in data set [6] is 0.29 V. Moreover, the Solubility in data set [2] (setting [9]) is 10 mg/mL; in data set [2] (setting [10]) it was 8 mg/mL; in data set [2] (setting [11]), 5 mg/mL; in data set [2] (Water), 305 mg/mL.
Take “Sodium 2-phenoxyanthraquinonetetrasulfonate”: the “Time required for oxidation” value in data set [3] was determined as 15 min. For the same molecule, in data set [1] (setting [13]), the desulfurization ratio result is “at least 99.7%”. In data set [5], the “Time required for reduction” value was determined as 5 min. In addition, in data set [6], the “Standard oxidation-reduction potential Eo” value is on record as 0.28 V. In addition, in data set [6], the “oxidation-reduction characteristics” value was “very similar in oxidation-reduction characteristics to sodium anthraquinone-2,7-disulfonate”. Besides, the Solubility in data set [2] (setting [9]) was > 300 mg/mL; in data set [2] (setting [10]), > 200 mg/mL; in data set [2] (setting [11]), > 200 mg/mL; in data set [2] (Water), > 600 mg/mL.
As to `O=C1c2ccccc2C(=O)c2cc(Oc3ccc(S(=O)(=O)O)cc3S(=O)(=O)O)ccc21` [sodium 2-phenoxyanthraquinone-2',4'-disulfonate, reference compound], the “suitability for use in the Stretford process (in words)” value in data set [1] (Stretford process) is listed as “unsuited for use in the Stretford process”. In addition, in data set [1] (setting [14]), the “capturing rate for hydrogen sulfide (in words)” value is reported as “inferior” and the “oxidation efficiency of hydrogen sulfide to elemental sulfur (in words)” value is recorded as “inferior”. For the same molecule, the standard oxidation-reduction potential in data set [6] (temperature not given) worked out at 0.21 V.
For the molecule “sodium 2-phenoxyanthraquinonetrisulfonate”, the “Time required for oxidation” value in data set [3] is 15 min. Moreover, the “quantity of sulfur recovered, % of hydrogen sulfide contained in the feed gas” value in data set [1] (Example 13: 0.005 mol/l reagent, 0.03 mol/l sodium metavanadate, pH 9, 40° C.) is 97%. The desulfurization ratio entry in data set [1] (setting [12]) was “at least 99.7%”; in data set [1] (setting [13]), ≥ 99.7%. In addition, the “Time required for reduction” value in data set [5] was 5 min. For the same molecule, the “Standard oxidation-reduction potential Eo” value in data set [6] stood at 0.27 V. In addition, in data set [6], the “oxidation-reduction characteristics” value was “very similar in oxidation-reduction characteristics to sodium anthraquinone-2,7-disulfonate”. The Solubility in data set [2] (setting [9]) is > 200 mg/mL; in data set [2] (setting [10]), > 100 mg/mL; in data set [2] (setting [11]) it was > 100 mg/mL; in data set [2] (Water), > 400 mg/mL.
On to `O=C1c2ccc(S(=O)(=O)O)cc2C(=O)c2ccc(S(=O)(=O)O)cc21` [anthraquinone-2,6-disulfonic acid], for which, in data set [7], the “solubility (in words)” value is reported as “very poor solubility”.
In the case of “ammonium 2-carboxyanthraquinonemonosulfonate”, the desulfurization ratio entry in data set [1] (setting [8]) is reported as “at least 99.7%”.
